Assay results: patent publication US20260355318A1, “MOLECULAR MACHINES FOR TREATMENT OF CANCER, FUNGAL INFECTIONS, OR BACTERIAL INFECTIONS” (priority 2022, published 2026)

Tests used:
B. megaterium = assay: MIC, B. megaterium; type: cell-based, Bacillus megaterium; details: Priestia megaterium, 405 nm light
Method: The appropriate volume of an MM stock at 8 mM necessary to achieve a concentration ranging from 0.3125 to 40 μM was pipetted into a 2 mL microcentrifuge tube to which 1 mL of cell suspension prepared as previously described was added. Corresponding negative controls (DMSO only) were prepared in the same way. The mixture was gently mixed by pipetting and incubated in the dark at 30 or 37 ° C, depending on the strain, for 30 min with agitation (220 rpm). Afterward, MM- or DMSO-treated cells were dispensed in one well of a 24-well plate positioned in the center of the light beam (405 nm LED Light, Prizmatix, UHP—F-5-405) placed at the appropriate distance necessary to achieve the desired light intensity of 304 mW cm-2, 146 mW cm2 or 87 mW cm2, as measured with a handheld digital power meter console coupled to an S415C thermal power sensor head (Thorlabs, Newton, MA, USA). The temperature during irradiation was monitored using a thermocouple probe (Model SC-TT-K-30-36-PP; Omega Engineering, Inc., Stanford, CT, USA). Samples were agitated during irradiation. Dark controls were prepared as previously described except that no irradiation was provided. […]

E. coli transcripts = assay: RNAseq of MM 1-treated E. coli; type: cell-based, Escherichia coli
Method: Three independent, well-isolated colonies of E. coli were cultured to mid-log phase in MHB media. Cells were collected and resuspended in PBS (1×) to an OD600 of ≈0.05. […] Cells were then irradiated for 5 min at 146 mW cm^−2 (43.8 J cm^−2). Bacterial cells were collected onto a 0.2 μm PES filter by low vacuum filtration. Two volumes of RNAprotect (Qiagen, Valencia, CA) were added to the cells, and the samples were then centrifuged at 5000 g for 25 min at 4 ° C to pellet cells. RNA was isolated using the RNeasy Mini Kit (Qiagen, Valencia, CA) per the manufacturer's instructions. RNA sequencing (RNAseq) and data analysis were performed by DNA Link Inc. (Seoul, Republic of Korea). RNA-Seq libraries were constructed by using TruSeq Stranded Total RNA with Ribo-Zero Plus rRNA Depletion Kit and sequenced on the Illumina NovaSeq6000 platform (Illumina, San Diego, CA) in the 100 nt, paired-end configuration. From each sample, an average of 70 million reads was obtained. For gene expression analysis, reads were trimmed with cutadapt (Magoc et al., 2013) and aligned to the reference genome of Escherichia coli str. K-12 substr. MG1655 (NC_000913) using EDGE-pro pipeline with default setting. Differential expression analysis was performed with DESeq2 in Bioconductor (Love et al., 2014). Gene annotation was performed using an in-house script based on NCBI reference annotations.

E. coli = assay: Extracellular ATP, E. coli; type: cell-based, Escherichia coli; details: 1×MIC
Method: Intracellular content leakage following treatment with MMs was determined by quantifying extracellular ATP (O'Neill et al, 2004). Following irradiation in the presence of different concentrations of MM 1, MM 5, and MM 6, or 1% DMSO, E. coli cells were centrifuged at 13,000 g for 5 min. Supernatants were recovered and stored at −20 ° C for ATP analysis. ATP analysis was conducted using the luminescence-based BacTiter-Glo™ assay (Promega) per the manufacturer's instructions. Nisin was used as a positive control. The levels of ATP in supernatants were derived via a standard curve of ATP standards from 1 nM to 1 μM. Luminescence measurements of ATP standards and culture supernatants were measured in triplicate on a microplate reader (BioTek Instruments Inc, Winooski, VT, USA). Results were expressed as relative light units (RLU) corrected for […] in the absence of cells.

C. albicans [1] = assay: Time-kill assay, C. albicans; type: cell-based, Candida albicans; details: C. albicans, 2×MIC, 405-nm light at 292 mW cm^−2
Method: For yeasts, five independent colonies were collected from 24-h SDAE plates, inoculated into yeast peptone with 2% dextrose (YPD), and grown for 24 h at 30 °C. Cells were then sub-cultured in fresh medium and grown for ~9 h. Afterward, the cells were centrifuged (5,000 ×g, 5 min), washed, and resuspended in phosphate-buffered saline (PBS) to ~10^6 CFU mL^−1. For A. fumigatus, conidia suspensions (~10^4 CFU mL^−1) were prepared in PBS as previously described.
Amphotericin B (AMB, 4×MIC) controls were prepared likewise, but light was omitted. Aliquots were collected in 1-min increments for up to 10 min, serially diluted in PBS, and plated on SDAE medium. Plates were incubated at 30 ° C for 48 h with confirmation after 72 h (yeasts) or at 28 ° C for 7 days with confirmation after 14 days (A. fumigatus), after which the CFU number was determined. The results were expressed as the logarithm of base 10 of the ratio between the CFU at each time point and the CFU at time 0. The detection limit of the method was ~1 log10 CFU mL^−1.

C. albicans [2] = assay: Lipid peroxidation (TBARS, MDA); type: cell-based, Candida albicans; details: 2×MIC
Method: Superoxide dismutase (SOD) activity was determined using a Superoxide Dismutase Assay Kit (Caymanchem, MI, USA) per the distributor's instructions. Lipid peroxidation was determined using a TBARS assay kit (TCA method) (Caymanchem, MI, USA) per the distributor's instructions. SOD activity and MDA levels were normalized by protein content determined by the Pierce assay (Pierce™ BCA Protein Assay Kit, Thermo Fisher Scientific, MA, USA).

For `C[C@@H]1Cc2ccc3ccccc3c2/C1=C1\c2ccccc2Sc2cc(NCCN(C)C)ccc21` [MM 1, N^1N^1-dimethyl-N^2-(9-(2-methyl-2,3-dihydro-1H-cyclopenta[a]naphthalen-1-ylidene)-9H-thioxanthen-3-yl) ethane-1,2-diamine], the MIC (B. megaterium) was 0.078 µM, the “transcripts significantly more abundant in MM-treated samples” value (E. coli transcripts; 0.5×MIC) was 1362 transcripts and the “transcripts with significantly different levels vs DMSO” value (E. coli transcripts; 0.5×MIC, p<0.05) was 2694 transcripts. The “transcripts significantly more abundant in DMSO controls” value (E. coli transcripts; MM 1 0.5×MIC versus DMSO) was 1332 transcripts, the “maximum difference in transcript abundance between treatments” value (E. coli transcripts; MM 1 versus DMSO) was ≤ 5 fold and the “Transcript Fold Change, argC” value (E. coli transcripts; gene argC, p<0.05, 5 min) was 2.0. For the same compound, the “Transcript Fold Change, argF” value (E. coli transcripts; gene argF, p<0.05, 5 min) was 2.2, the “Transcript Fold Change, argI” value (E. coli transcripts; gene argI, p<0.05, 5 min) was 2.8 and the “Transcript Fold Change, artJ” value (E. coli transcripts; gene artJ, p<0.05, 5 min) was 2.5. The “Transcript Fold Change, asr” value (E. coli transcripts; gene asr, p<0.05, 5 min) was 2.2, the “Transcript Fold Change, bfd” value (E. coli transcripts; gene bfd, p<0.05, 5 min) was 2.0 and the “Transcript Fold Change, cdh” value (E. coli transcripts; gene cdh, p<0.05, 5 min) was 2.5. The “Transcript Fold Change, prpB” value (E. coli transcripts; gene prpB, p<0.05, 5 min) was 5.5, the “Transcript Fold Change, prpC” value (E. coli transcripts; gene prpC, p<0.05, 5 min) was 5.0 and the “Transcript Fold Change, tauA” value (E. coli transcripts; gene tauA, p<0.05, 5 min) was 2.5. The “Transcript Fold Change, tynA” value (E. coli transcripts; gene tynA, p<0.05, 5 min) was 2.6, the “Transcript Fold Change, yiaW” value (E. coli transcripts; gene yiaW, p<0.05, 5 min) was 2.2 and the “Transcript Fold Change, ymdF” value (E. coli transcripts; gene ymdF, p<0.05, 5 min) was 2.4. The “Transcript Fold Change, ymgC” value (E. coli transcripts; gene ymgC, p<0.05, 5 min) was 2.3 and the “extracellular levels of ATP” value (E. coli) was “up to 1.2×10^−7 moles”.
With `C[C@@H]1Cc2ccc3ccccc3c2/C1=C1\c2ccccc2Sc2cc(NCCN)ccc21` (racemic) [MM 6, N^1-(9-(2-methyl-2,3-dihydro-1H-cyclopenta[a]naphthalen-1-ylidene)-9H-thioxanthen-3-yl)ethane-1,2-diamine] the “time to reduce cell numbers to limit of detection” value (C. albicans [1]) was 5 min and the “lipid peroxidation product levels” value (C. albicans [2]) was “increased levels of the lipid peroxidation product malonaldehyde”.
